Data on 2 molecules can be found in patent publication US12071488B2, “Method of sensitizing cancer cells to anti-cancer treatment” (TWO TO BIOTECH LTD., priority 2017, dated 2024).

Assay [1] has as its system human ovarian cancer cells (OV90). The experiment in a line: Relative tumor volume in nude mice inoculated with human ovarian cancer cells. The format is in vivo. The following applies: OV90 tumors; APC1 15 mg/kg, doxorubicin 3 mg/kg once a week; 5 weeks; control increased linearly.
Method: During the treatment period, each mouse was weighted, and the tumor size was measured by Digital caliper.
When the tumors exceeded a volume of 40 mm^3 or 50 mm^3 (for OV90 and Panc1, respectively), the mice were randomly divided into four groups of 8 mice each, as follows. A control group was treated with saline only, the APC1-treated group was treated three times a week with doses of APC1 at 15 mg/kg each, the doxorubicin and APC treated group was treated twice a week with doses of APC1 (at 15 mg/kg each) and once a week with doxorubicin (at 3 mg/kg) and the doxorubicin-treated group was treated with doxorubicin only, once a week at a dose of 3 mg/kg. These dosing protocols were repeated throughout the experiment, namely for 5 weeks.
For assay [2], the system named is human TNBC tumors (MDA-MB-231). The experiment in a line: Relative tumor volume in nude mice inoculated with TNBC cells. In kind it is in vivo. The following applies: MDA-MB-231 tumors; APC1 15 mg/kg, doxorubicin 3 mg/kg once a week; 5 weeks; control increased linearly. The source says:
To this end, mice were inoculated with TNBC cells as detailed above, briefly 32 nude mice were inoculated subcutaneously with TNBC cells (MDA-MB-231, 8×10^6 cells per mouse).

The test system of assay [3] is leukemia and prostate cancer cells. The following applies: WO 2009/083968; cited from earlier work.
In another assay the test system is tumor. The conditions noted are these: WO 2009/083968; cited from earlier work.

In the case of `COc1cccc2c1C(=O)c1c(O)c3c(c(O)c1C2=O)C[C@@](O)(C(=O)CO)C[C@@H]3O[C@H]1C[C@H](N)[C@H](O)[C@H](C)O1` [doxorubicin, (7S,9S)-7-[(2R,4S,5S,6S)-4-amino-5-hydroxy-6-methyloxan-2-yl]oxy-6,9,11-trihydroxy-9-(2-hydroxyacetyl)-4-methoxy-8,10-dihydro-7H-tetracene-5,12-dione, reference compound], the relative tumor volume entry in assay [1] is recorded as “modest increases”; in assay [2], “moderate increase”.

B1: MPGHSRLLSILVSGLCVVGSSIGVLRRREQAERGSRRCAIAGEERAMLSPSPLPE TPFSPEKGAAFSPIYPRRK (protein, listed as Homo sapiens)
chain: MPGHSRLLSILVSGLCVVGSSIGVLRRREQAERGSRRCAIAGEERAMLSPSPLPETPFSPEKGAAFSPIYPRRK
notes: full length polypeptide of 74 amino acid residues described in WO 2009/083968
Turning to B1, the “viability of leukemia and prostate cancer cells” value in assay [3] was “decrease in the viability”. The “tumor growth in mice” value in the assay on tumor is “prevention of tumor growth”.
